Experimental findings from patent US20070160527A1, “Use of n-acetyl-d-aminoglycosamine in treatment of local lesions or systematic symptoms related to autoimmune reactions” (priority 2003, published 2007) are described below.

SMILES strings stand for the structures.

Data set [1] has as its system B16 tumor cells. Briefly: Animal test of regulating micro-heterology variation (B16 tumor cells inoculated on hind legs). The class given is in vivo, rats. Conditions: 7 days, 3 times per day; for control of micro-heterology variation compared with the control group: rats inoculated with B16 tumor cells, intra-peritoneal, 1 ml. The text has this: In control group without the administration of the compound of formula (1), many proliferative corpuscles appeared in at least 40 among 50 rats within 1-3 days after the tumor cells were inoculated; many immature cells appeared within 3-5 days; and visible solid tumors finally appeared within about 10 days.

For data set [2], the system named is B16 tumor cells. Briefly: Cytological test of regulating micro-heterology variation. It is filed as cell-based. The conditions noted are these: final concentration 1 g/100 ml, incomplete 1640 medium, continued culture more than 48 hours; control cells could not proliferate. How it is done:
Conventional incomplete 1640 culture media were used for cell culture, and B16 tumor cells (commericially obtained from the tumor cell library of Shanghai Institute of Cytobiology) were inoculated on said media. After continue culture for more than 48 hours, the micro-heterology variation of cells and the control effects of N-acetyl-D-glucosamine thereon were observed under a condition where metabolic wastes affected the growth environment. […] The control cells cultured without N-acetyl-D-glucosamine could not proliferate on the same culture media under same conditions.

The conditions of data set [3]: in vivo. The text has this:
The toxicological test of the compound of formula (I) includes: • 1. Acute toxicity test: including tests of oral administration, intravenous injection administration, and maximum limit amount for administration; • 2. Ames test; • 3. Micronucleus test of mouse bone marrow cell; • 4. Abnormality test of mouse sperm; • 5. Aberration test of mouse testis chromosome; • 6. Chronic lethal test; • 7. Sub-chronic toxicity (feed for 90 days) test; • 8. Traditional deformity-inducing test.

The nature of data set [4]: Treatment of a patient with hyperthyroidism. It is filed as in vivo, human. The conditions noted are these: one patient, capsules 100 mg, 3 times per day, 7 days. How it is done:
Patient was administered with capsules of the compound of formula (1) for consecutive 7 days, 3 times per day, and 100 mg every time, during the period of treating diarrhea.

The nature of data set [5]: Treatment of a patient with systemic lupus erythematosus. The class given is in vivo, human. The conditions noted are these: one patient, capsules 100 mg, 3 times per day, 7 days. How it is done: Patient who had definite systemic lupus erythematosus, was administered with capsules of the compound of formula (1) for consecutive 7 days, 3 times per day, and 100 mg every time, during the period of hospitalization.

A further data set deals with Proteus Mirabilis. In words: Promoting wave test (bio-wave model). The class given is cell-based. Conditions: final concentration 0.5% in LB plate, 37° C., 9 hours, compared with control sample. The text has this: • 1. […] (+). […] Experimental results and evaluation:

Regarding `CC(=O)N[C@H]1C(O)O[C@H](CO)[C@@H](O)[C@@H]1O.Cl` (stereo partly drawn) [N-acetyl-D-glucosamine hydrochloride], the “control of micro-heterology variation compared with the control group” value with B16 tumor cells [1] is “exhibited function of controlling micro-heterology variation”. Further, the “cell proliferation under a condition where metabolic wastes affected the growth environment” value in the data set with B16 tumor cells [2] is “cells could proliferate continuously”.
For `CC(=O)N[C@@H]1[C@@H](O)[C@H](O)[C@@H](CO)O[C@H]1O` [compound of formula (I), N-acetyl-D-glucosamine], in data set [3], the “dosage at which the acute toxicosis reaction had not appeared” value is reported as “more than 2 g/kg”. In addition, the “number of rats in which solid tumor did not appear” value in the data set on B16 tumor cells [1] (50 rats, 5% aqueous solution intra-peritoneally, 1 ml every time) is recorded as 45. In addition, the “control of micro-heterology variation compared with the control group” value in the data set with B16 tumor cells [1] is listed as “could control the micro-heterology variation”. In addition, in data set [4], the “therapeutical effect on hyperthyroidism (confirmed by T3 and T4 in serum)” value was “better effect of treating hyperthyroidism”. Further, the “cell proliferation under a condition where metabolic wastes affected the growth environment” value in the data set on B16 tumor cells [2] is “cell number stably increased with the culture time”. Moreover, in data set [5], the “patient's symptom” value was “remitted in some extent”. Also, the “bio-wave pattern of bacterial growth (promoting wave function)” value in the data set with Proteus Mirabilis is listed as “finer wave mode”.
